{
  "source": "patent US12168003B2",
  "about": "“Selective inhibition of T follicular helper cells for treatment of autoimmune disorders” (priority 2019, dated 2024)",
  "format_in_all_cases": "in vivo, mouse",
  "key": {"TH1 and TH17 cells": {"system": "TH1 and TH17 cells", "assay": "S. aureus sub-dermal ear pinnae infection model", "experimental": "S. aureus subspecies Rosenbach (ATCC 25923) was grown overnight in TSB broth (Corning). Following quantification, 1×10^8 CFU of S. aureus in 100 μL were injected subdermal in the base of the ear pinnae. On days 0 through 7, mice were treated daily with i.p. 25 mg/kg 4EGI-1 or vehicle. On day 8, mice were euthanized and the whole infected ear was collected along with the cervical lymph node (CLN) and blood. Blood was allowed to clot at room temperature, spun at 2,000×g for 30 minutes, and serum was collected and frozen until analysis. Ear thickness was measured with a digital caliper on day 8.\nSpleens, draining lymph nodes, and brains were dissociated with the plunger-end of a syringe and passed through a 70 μm nylon filter. Splenocytes were subject to RBC lysis with ACK (Ammonium-Chloride-Potassium). Ears were subject to mechanical dissociation with scissors prior to incubation in 1 mL PBS in a 48-well plate with 100 μg/mL Liberase TL and 20 μg/mL DNase I for 1.5 hours at 37° C. Following incubation, cells were further dissociated by passing through a syringe, quenched with PBS+2% FCS, and filtered through a 70 μm nylon filter. Lungs were mechanically dissociated with a razor blade and incubated in a 6 cm dish with 5 mLs RPMI containing 250 μg/mL collagenase, 50 μg/mL Liberase TL, 1 mg/mL hyaluronidase, and 200 μg/mL DNase I for 30 minutes. Following incubation, cells quenched with PBS+2% FCS, and filtered through a 70 μm nylon filter. Ear and lung cells were subject to lymphocyte isolation using a gradient (Lymphocyte Separation Medium; Cellgro). Vertebral columns were flushed with PBS through a 19-gauge needle to remove intact spinal cords. Spinal cords were subject to mechanical dissociation with scissors and incubation in 1 mL PBS with 200 μg/mL DNase I and 50 μg/mL Liberase TL for 30 minutes at 37° C. Following incubation, cells were quenched with PBS+2% FCS and filtered through a 70 μm nylon filter.\nSingle cell suspensions of noted tissues were resuspended in T cell media with 1× PMA/Ionomycin (cell activation cocktail; BioLegend®) and 1× brefeldin A (BioLegend®) for 5-6 hours at 37° C. Following stimulation, cells were incubated with a live/dead viability marker and extracellular stain prior to fix and permeabilization with Fixation/Permeabilization Solution kit (BD Biosciences) according to manufacturer's instructions to detect intracellular cytokines IL-17A, IFN-γ, or IL-13. Concentration and clones of flow cytometry antibodies used for staining detailed in Table 2.\n(§1) For quantification of OVA-specific IgG1, high-binding 96-well plates (Costar) were coated with 10 μg/mL OVA protein. For S. aureus-specific IgG1, plates were coated with heat-killed S. aureus (heat-killed at 80° C. for 30 min). For total IgE, plates were coated with 2 μg/mL rat anti-mouse IgE (Southern Biotech). Following overnight incubation at 4° C., plates were blocked with 1% BSA for 30 min at 37° C. After blocking, serum (diluted 1/20 initially then 1/2 down the plate) was incubated at 37° C. for 2 hours, plates were washed 3 times in PBS and then incubated with 1:1000 anti-mouse IgG1-HRP (Southern Biotech) or anti-mouse IgE-HRP (Southern Biotech) for 1 hour at 37° C. Plates were washed 3 times in PBS and incubated with TMB substrate. Following development, TMB Stop Solution (BioLegend®) was added and plates were read at […]."}, "pre-existing TFH cells": {"system": "pre-existing TFH cells", "assay": "OVA/Alum immunization, 4EGI-1 after formation of TFH cells", "experimental": "OVA protein (Sigma A5503) was diluted in PBS and then in 20 mg/mL Imject Alum (ThermoFisher 77161) and mixed at room temperature for 30 minutes prior to i.p. injection of 100 μg OVA in 200 μL. When stated, mice were treated i.p. daily from day 0 to 6 or day 0 to 13 (just for TFR analysis) following OVA/Alum immunization with 25 mg/kg 4EGI-1 (MedChemExpress) or from day 7 to 13 following OVA/Alum immunization with 50 mg/kg or 75 mg/kg 4EGI-1. Vehicle control mice were administered 6 μL DMSO in 194 μL PBS i.p.\nPVDF-coated 96-well plates (Millipore) were activated with methanol for 2 minutes, washed with PBS, and coated with 4 μg/mL OVA overnight at 4° C. Plates were blocked with 1% BSA for 2 hours at 37° C. prior to incubation with 1×10^7 splenocytes in RPMI containing 2% Ultra-low IgG FCS, 55 μM 2ME, and 100 U/mL penicillin and 100 μg/mL streptomycin in the top well. Cells were diluted by 1/2 each row going down the plate and incubated immobile overnight at 37° C. Plates were washed with water+0.05% Tween 20 for 5 min prior to 3 washes in PBS+0.05% Tween-20 for 10 minutes. Plates were incubated with 1:1000 HRP-coupled goat anti-mouse IgG1 antibody (Southern Biotech) in PBS+0.05% Tween 20 for 2 h prior to 3 washes in PBS+0.05% Tween 20 and incubation in tetramethylbenzidine (TMB) ELISA substrate buffer (ThermoFisher). Plates were washed once in distilled deionized water and spots were manually enumerated and antibody-secreting cells (ASC) per million splenocytes was determined.\nas §1"}, "OT2 T cells": {"system": "OT2 T cells", "assay": "OT2 T cell pre-treatment with 4EGI-1 before adoptive transfer", "settings": "20 μM 4EGI-1 1 hour before transfer", "experimental": "For functional TFH studies: OT2 T cells were isolated and activated, as described, and treated with vehicle or 20 μM 4EGI-1 for 1 hour at 37° C. in vitro prior to transfer of 2×10^6 OT2 T cells i.p. per CD45.1 recipient. Recipient animals were immunized with 100 μg OVA alum 4 days prior. Three days following transfer and 7 days following initial immunization, OT2 T cells that had formed TFH cells were determined.\nFor long-term studies: OT2 T cells were isolated and activated, as described, and treated with vehicle or 20 μM 4EGI-1 for 1 h at 37° C. in vitro prior to transfer of 12×10^6 OT2 T cells i.p. per CD45.1 recipient. OT2 T cells were enumerated 34 days post transfer and intracellular levels of eIF4E were determined."}, "[1]": {"settings": "75 mg/kg, day 7 to 13 after OVA/Alum"}, "[2]": {"settings": "4EGI-1 day 7 to 13 after OVA/Alum"}},
  "data": [
    {"smiles": "O=C(O)C(Cc1ccccc1[N+](=O)[O-])=NNc1nc(-c2ccc(Cl)c(Cl)c2)cs1", "note": "(mixture of isomers) [4EGI-1]", "values": [
      {"measurement": "differentiation or effector function of TH1 cells (T-bet+ or IFN-γ+) in the skin", "setting": "TH1 and TH17 cells; 25 mg/kg daily i.p., day 8", "result": "no effect"},
      {"measurement": "differentiation or effector function of TH17 cells (RORγT+ or IL17A+) in the skin", "setting": "TH1 and TH17 cells; 25 mg/kg daily i.p., day 8", "result": "no effect"},
      {"measurement": "general skin inflammation (ear thickness and skin neutrophil levels)", "setting": "TH1 and TH17 cells; 25 mg/kg daily i.p., day 8", "result": "no effect"},
      {"measurement": "formation of GC B cells in draining lymph nodes", "setting": "TH1 and TH17 cells; cervical lymph nodes, day 8", "result": "strongly reduced"},
      {"measurement": "formation of TFH cells in draining lymph nodes", "setting": "TH1 and TH17 cells; cervical lymph nodes, day 8", "result": "strongly reduced"},
      {"measurement": "secretion of class-switched immunoglobulins", "setting": "TH1 and TH17 cells; serum S. aureus-specific IgG1, day 8", "result": "strongly reduced"},
      {"measurement": "reduction of CD4+ T cell protein synthesis (SUnSET)", "setting": "pre-existing TFH cells; [1]", "result": "approximately half"},
      {"measurement": "total number of CD4+ T cells in spleen", "setting": "pre-existing TFH cells; [1]", "result": "without significantly reducing"},
      {"measurement": "reduction of levels of GC B cells", "setting": "pre-existing TFH cells; [2]", "result": 3, "unit": "fold"},
      {"measurement": "reduction of levels of OVA-specific IgG1 ASC cells", "setting": "pre-existing TFH cells; [2]", "result": 3, "unit": "fold"},
      {"measurement": "reduction of levels of pre-existing splenic CD4+ TFH cells", "setting": "pre-existing TFH cells; [2]", "result": 3, "unit": "fold"},
      {"measurement": "serum OVA-specific IgG1 antibody", "setting": "pre-existing TFH cells; [2]", "result": "moderately reduced"},
      {"measurement": "OT2 T cells populating the spleen vs non-treated OT2 T cells", "setting": "OT2 T cells; 34 days post-transfer", "result": "equal"},
      {"measurement": "OT2 T cells populating the spleen vs non-treated OT2 T cells", "setting": "OT2 T cells; assayed 7 days", "result": "equal"},
      {"measurement": "intracellular levels of eIF4E in recovered OT2 T cells", "setting": "OT2 T cells; day 34 post-transfer", "result": "sustained reduction"},
      {"measurement": "reduction in number of OT2 TFH cells in the spleen", "setting": "OT2 T cells; following OVA/Alum immunization", "result": "two-thirds"}
    ]}
  ]
}
